Measurements taken from PMC5776679 (Journal of medicinal chemistry, 2016).
Read-outs that look alike come from different tables or passages of the source.

Tests used:
HIV-1 = conditions: for EC50: read-out: EC50 (PBMCs) HIV-1
[1] = phase I, preliminary data on Chimerix's website; cited from earlier work
HBV = conditions: therapeutic index at the EC50, HepG2
HepG2 [2] = assay: Cytotoxicity in uninfected HepG2 cells; conditions: read-out: CC50 (HepG2), concentration required to reduce the viability of uninfected cells by 50%, triplicate
PBMCs = assay: Cytotoxicity in uninfected PBMCs; conditions: read-out: CC50 (PBMCs), concentration required to reduce the viability of uninfected cells by 50%, triplicate
in vitro = conditions: human
HepG2 [3] = conditions: human
Stability in PBS = conditions: all examined media except human serum
[4] = clinical trials; cited from earlier work
[5] = rats; cited from earlier work
[6] = monkeys; cited from earlier work
[7] = therapeutic index at the EC50, PBMCs

Row | Compound | TI (CC50/EC50) HIV-1 (HIV-1) | EC50 (HIV-1) [µM] | TI (CC50/EC50) HBV (HBV) | further results
1 | C[C@H](Cn1cnc2c(N)ncnc21)OCP(=O)(O)O [TFV, Tenofovir, reference compound] | >300 | – | – | –
2 | CCCCCCCCCCCCCCCCOCCCOP(=O)(O)CO[C@H](C)Cn1cnc2c(N)ncnc21 [compound 1, hexadecyloxypropyl-tenofovir, reference compound] | >5000 | – | – | tolerability [1]: well-tolerated
3 | 2-(Hexadecyldisulfanyl)ethyl Octyl ((((R)-1-(6-Amino-9H-purin-9-yl)propan-2-yl)oxy)methyl)phosphonate [compound 22] | >50 | 0.911 | – | –
4 | CCCCCCCCCCCCCCCCCCSSCCOP(=O)(O)CO[C@H](C)Cn1cnc2c(N)ncnc21.N [12e, 2-(Octadecyldisulfanyl)ethyl Hydrogen ((((R)-1-(6-Amino-9H-purin-9-yl)propan-2-yl)oxy)methyl)phosphonate] | – | – | >50 | –
5 | 2-(Dodecyldisulfanyl)ethyl (2-(Dodecylsulfinothioyl)ethyl) ((((R)-1-(6-Amino-9H-purin-9-yl)propan-2-yl)oxy)methyl)phosphonate [13b] | >85.0 | 1.18 | >1 | CC50 (HepG2 [2]): > 100 µM; CC50 (PBMCs): > 100 µM
6 | CC(C)OC(=O)OCOP(=O)(CO[C@H](C)Cn1cnc2c(N)ncnc21)OCOC(=O)OC(C)C.O=C(O)/C=C/C(=O)O [TDF, tenofovir disoproxil fumarate] | – | – | – | CC50 (in vitro): 29.2 µM; CC50 (HepG2 [3]): 64.5 µM
7 | CCCCCCCCCCCCCCSSCCOP(=O)(O)CO[C@H](C)Cn1cnc2c(N)ncnc21.N [12c, 2-(Tetradecyldisulfanyl)ethyl Hydrogen ((((R)-1-(6-Amino-9H-purin-9-yl)propan-2-yl)oxy)methyl)phosphonate] | – | – | >56 | TI (CC50/EC50) HIV-1 (HIV-1; [7]): 28000; fold stability increase over 12d (Stability in PBS): ~2 fold
8 | C[C@H](Cn1cnc2c(N)ncnc21)OCP(=O)(O)OCCS [compound 9, 2-Mercaptoethyl Hydrogen ((((R)-1-(6-Amino-9H-purin-9-yl)-propan-2yl)oxy)methyl)phosphonate] | >5.38 | – | >2.4 | –
9 | 2-(Decyldisulfanyl)ethyl (2-(Decylsulfinothioyl)ethyl) ((((R)-1-(6-Amino-9H-purin-9-yl)propan-2-yl)oxy)methyl)phosphonate [13a] | >287 | 0.349 | >1 | CC50 (HepG2 [2]): > 100 µM; CC50 (PBMCs): > 100 µM
10 | CC(C)OC(=O)[C@H](C)N[P@](=O)(CO[C@H](C)Cn1cnc2c(N)ncnc21)Oc1ccccc1 [TAF, tenofovir-alafenamide] | – | – | – | nephrotoxicity [4]: little to no nephrotoxicity
11 | CCCCCCCCCCCCSSCCOP(=O)(O)CO[C@H](C)Cn1cnc2c(N)ncnc21.N [12b, 2-(Dodecyldisulfanyl)ethyl Hydrogen ((((R)-1-(6-Amino-9H-purin-9-yl)propan-2-yl)oxy)methyl)phosphonate] | – | – | >30 | –
12 | 2-(Hexadecyldisulfanyl)ethyl (2-(Hexadecylsulfinothioyl)ethyl) ((((R)-1-(6-Amino-9H-purin-9-yl)propan-2-yl)oxy)methyl)-phosphonate [13d] | 4.0 | 6.32 | >1 | CC50 (HepG2 [2]): > 25 µM; CC50 (PBMCs): > 25 µM
13 | Nc1ncnc2c1ncn2CCOCP(=O)(O)O [adefovir] | – | – | – | bioavailability [5]: 8–11%; bioavailability [6]: < 1%
14 | 2-(Octadecyldisulfanyl)ethyl (2-(Octadecylsulfinothioyl)ethyl) ((((R)-1-(6-Amino-9H-purin-9-yl)propan-2-yl)oxy)methyl)-phosphonate [13e] | >76 | 0.331 | >1 | CC50 (HepG2 [2]): > 25 µM; CC50 (PBMCs): > 25 µM
15 | 2-(Tetradecyldisulfanyl)ethyl (2-(Tetradecylsulfinothioyl)ethyl) ((((R)-1-(6-Amino-9H-purin-9-yl)propan-2-yl)oxy)methyl)-phosphonate [13c] | >529 | 0.189 | >1 | CC50 (HepG2 [2]): > 100 µM; CC50 (PBMCs): > 100 µM
16 | CCCCCCCCCCSSCCOP(=O)(O)CO[C@H](C)Cn1cnc2c(N)ncnc21.N [12a, 2-(Decyldisulfanyl)ethyl Hydrogen ((((R)-1-(6-Amino-9H-purin-9-yl)propan-2-yl)oxy)methyl)phosphonate] | – | – | >1 | TI (CC50/EC50) HIV-1 (HIV-1; [7]): >590
17 | C[C@H](Cn1cnc2c(N)ncnc21)OCP(=O)(O)OCCSSCCO [DTE–TFV, 2-((2-Hydroxyethyl)disulfanyl)ethyl Hydrogen ((((R)-1-(6-Amino-9H-purin-9-yl)propan-2-yl)oxy)methyl)phosphonate] | >62.1 | – | >8.6 | –
18 | CCCCCCCCCCCCCCCCSSCCOP(=O)(O)CO[C@H](C)Cn1cnc2c(N)ncnc21.N [12d, 2-(Hexadecyldisulfanyl)ethyl Hydrogen ((((R)-1-(6-Amino-9H-purin-9-yl)propan-2-yl)oxy)methyl)phosphonate] | – | – | >1200 | –
